Reference: patent US11254904B2, “Culture material and use thereof” (MITSUI CHEMICALS, INC., priority 2019, dated 2022)
Where a name gives a salt, the structure may show the parent alone.

How the values were obtained:
[1] = Evaluation of drug sorption (drug residual rate); format: physicochemical; settings: 10 μmol/L drug solution, 0.5 ml per well, 23° C., 2 days; average of three wells
Experimental: Thereafter, the drug solutions were recovered. The concentrations of the recovered drug solutions were measured by a fluorescence analysis method or LC/MS. The drug residual rate, which was the concentration of the measured recovered drug solution with respect to the concentration of the drug solution before added to the vessel, was calculated. The average value of the drug residual rate in three wells was given. For the drugs 1 to 3 for evaluation, concentration analysis was performed by a fluorescence analysis method.

[2] = Evaluation of drug sorption (drug residual rate); format: physicochemical; settings: 10 μmol/L drug solution, 0.5 ml per well, 23° C., 2 days; average of three wells; remark: listed apart in the source
Experimental: Thereafter, the drug solutions were recovered. The concentrations of the recovered drug solutions were measured by a fluorescence analysis method or LC/MS. The drug residual rate, which was the concentration of the measured recovered drug solution with respect to the concentration of the drug solution before added to the vessel, was calculated. The average value of the drug residual rate in three wells was given. For the drugs 1 to 3 for evaluation, concentration analysis was performed by a fluorescence analysis method. For the drugs 4 to 8 for evaluation, concentration analysis was performed by LC/MS. <Fluorescence Analysis Conditions> • Evaluation apparatus: FP-6600 (spectrofluorometer, manufactured by JASCO Corporation) • Used cell: Micro cell made of quartz • Bandwidth: excitation side: 5 nm, fluorescence side: 6 nm • Sensitivity (PMT voltage): 400 V • Excitation wavelength: rhodamine B 555 nm <LC/MS Conditions> • Apparatus: Acquity UPLC I-class system/TQ-S micro(water) • Ionization method: electrospray ionization (ESI), positive and negative ion detection A drug sorption test was performed on the 24-well TCPS culture vessel (manufactured by Corning Incorporated, made of polystyrene (PS)) used in Comparative Example 4 and the 24-well PDMS culture vessel (product name: […] (trademark) model number: […]

Compound | drug residual rate, 4-methyl-1-pentene Polymer Vessel (Example 11) [1] [%] | drug residual rate, PDMS Vessel (Comparative Example 8) [2] [%] | drug residual rate, PS Vessel (Comparative Example 7) [2] [%]
CC(C)NCC(O)c1ccc(O)c(O)c1 (stereo not drawn) [Isoproterenol Hydrochloride, isoproterenol hydrochloride] | 63 | 1 | 65
rhodamine 123 | 99 | 58 | 79
Clc1ccccc1CN1CCc2sccc2C1 [Ticlopidine Hydrochloride, ticlopidine hydrochloride] | 64 | 1 | 67

Further lines, results first:

drug residual rate, 4-methyl-1-pentene Polymer Vessel (Example 11) [1] [%] | drug residual rate, PDMS Vessel (Comparative Example 8) [2] [%] | drug residual rate, PS Vessel (Comparative Example 7) [2] [%] | Compound
68 | 2 | 70 | Cc1oncc1C(=O)Nc1ccc(C(F)(F)F)cc1 [Leflunomide, leflunomide]
98 | 2 | 90 | CCN(CC)c1ccc2c(-c3ccccc3C(=O)O)c3ccc(=[N+](CC)CC)cc-3oc2c1.[Cl-] [Rhodamine B, rhodamine B]
